Assay results reported in article PMC9078235 (RSC Advances, 2018).

Biological target: Thrombin (≥1000 NIH U mg^−1 protein) prepared from human plasma (Homo sapiens, UniProt P00734)
Test: chromogenic thrombin activation assay, […] nm
Assay type: biochemical

EC50 [µM] | Structure (SMILES)
136 | CC(=O)Oc1ccc(/C=C/C(=O)Nc2nc3ccccc3s2)cc1 [Q2, (E)-4-(3-(Benzo[d]thiazol-2-ylamino)-3-oxoprop-1-en-1-yl)phenyl acetate]
232 | COc1cc(/C=C/C(=O)Nc2nc3ccccc3s2)cc(OC)c1OC [Q8, (E)-N-(Benzo[d]thiazol-2-yl)-3-(3,4,5-trimethoxyphenyl)acrylamide]
127 | O=S(=O)(O)c1cc(O)ccc1O [etamsylate, reference compound]
